pIC50: −log10 of the molar value.

Data on 8 compounds can be found in ChEMBL document CHEMBL1134242 (Bioorg Med Chem Lett, 2001).

Test [1] addresses Sodium-dependent dopamine transporter (Rattus norvegicus, UniProt P23977). Nature of the test: Ability to inhibit binding of [3H]WIN-35428 to dopamine transporter in rat caudate putamen. It counts as tissue-based.
For another test, the species on record is Rattus norvegicus. Briefly: Ability to inhibit high-affinity uptake of [3H]DA into striatal nerve endings (synaptosomes). It counts as functional. As to conditions: Brain.
Test [2] has as its target Sodium-dependent serotonin transporter (Rattus norvegicus, UniProt P31652). Nature of the test: Ability to inhibit binding of [3H]paroxetine to Serotonin transporter in rat caudate putamen. It counts as tissue-based.

Chain of Sodium-dependent serotonin transporter (P31652 whole entry): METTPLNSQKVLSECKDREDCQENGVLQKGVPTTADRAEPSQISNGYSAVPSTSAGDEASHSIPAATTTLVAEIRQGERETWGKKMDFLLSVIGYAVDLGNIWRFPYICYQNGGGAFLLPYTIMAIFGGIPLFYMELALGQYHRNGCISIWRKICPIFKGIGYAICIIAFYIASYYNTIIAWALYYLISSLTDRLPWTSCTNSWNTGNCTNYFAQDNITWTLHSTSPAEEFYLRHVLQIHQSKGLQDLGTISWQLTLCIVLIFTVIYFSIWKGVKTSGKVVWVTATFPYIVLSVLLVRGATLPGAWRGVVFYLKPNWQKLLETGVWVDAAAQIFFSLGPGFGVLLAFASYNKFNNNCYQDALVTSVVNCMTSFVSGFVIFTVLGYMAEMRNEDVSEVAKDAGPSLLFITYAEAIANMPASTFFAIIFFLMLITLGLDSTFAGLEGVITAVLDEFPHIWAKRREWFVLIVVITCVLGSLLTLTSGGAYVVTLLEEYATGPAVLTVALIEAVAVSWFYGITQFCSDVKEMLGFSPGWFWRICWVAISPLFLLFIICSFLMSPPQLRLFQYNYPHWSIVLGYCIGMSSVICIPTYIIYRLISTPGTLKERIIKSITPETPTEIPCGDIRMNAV
Chain of Sodium-dependent dopamine transporter (P23977 whole entry): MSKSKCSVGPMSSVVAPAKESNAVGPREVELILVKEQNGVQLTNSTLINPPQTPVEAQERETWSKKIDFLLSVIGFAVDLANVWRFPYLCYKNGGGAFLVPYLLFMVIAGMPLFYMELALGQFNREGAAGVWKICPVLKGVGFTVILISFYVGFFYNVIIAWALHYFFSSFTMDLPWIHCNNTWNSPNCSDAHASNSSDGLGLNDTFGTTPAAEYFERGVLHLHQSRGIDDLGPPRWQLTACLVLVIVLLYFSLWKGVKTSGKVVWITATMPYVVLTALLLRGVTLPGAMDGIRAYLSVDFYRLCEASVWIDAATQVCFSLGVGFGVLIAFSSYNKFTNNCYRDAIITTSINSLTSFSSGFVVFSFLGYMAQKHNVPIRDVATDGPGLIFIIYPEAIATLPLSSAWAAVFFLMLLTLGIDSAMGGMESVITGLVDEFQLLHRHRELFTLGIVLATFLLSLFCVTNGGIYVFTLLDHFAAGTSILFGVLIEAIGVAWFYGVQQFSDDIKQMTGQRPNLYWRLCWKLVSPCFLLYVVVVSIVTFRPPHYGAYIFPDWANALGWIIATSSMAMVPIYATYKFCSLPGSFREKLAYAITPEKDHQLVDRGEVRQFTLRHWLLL

Broadly, the pIC50 is the IC50 on a negative log10 scale, so that one unit is a factor of ten. Turning to `CO[C@H]1CC2C[C@H](OC(c3ccccc3)c3ccc(Cl)cc3)CC1N2C` (stereo partly drawn), the pIC50 in test [1] is 6.12; in the test listed under Rattus norvegicus it was 6.28; in test [2], less than 4.00.
On the same counts, the results for `CO[C@@H]1CC2C[C@@H](OC(c3ccccc3)c3ccc(Cl)cc3)CC1N2C` (stereo partly drawn) are 7.49, 6.75 and less than 4.00.
The compound `c1ccc(C(O[C@H]2C[C@H]3CC[C@@H](C2)O3)c2ccccc2)cc1` had a negative logarithm of the IC50 (pIC50) in test [1] of less than 5.00.
Still for that read-out and setting: in the case of `Fc1ccc(C(O[C@H]2C[C@H]3CC[C@@H](C2)O3)c2ccc(F)cc2)cc1` it was 5.70.
As to `CO[C@H]1CC2C[C@H](OC(c3ccc(F)cc3)c3ccc(F)cc3)CC1N2C` (stereo partly drawn), the pIC50 is 7.02 in test [1], 6.78 in the test listed under Rattus norvegicus and less than 4.00 in test [2].
On the same counts, the results for `CO[C@@H]1CC2C[C@@H](OC(c3ccc(F)cc3)c3ccc(F)cc3)CC1N2C` (stereo partly drawn) are 7.60, 6.98 and less than 4.00.
In the case of `CO[C@H]1CC2C[C@H](OC(c3ccccc3)c3ccccc3)CC1N2C` (mixture of isomers), the negative logarithm of the IC50 (pIC50) is 6.19 in test [1], 5.64 in the test filed under Rattus norvegicus and less than 4.00 in test [2].
For `COC(=O)[C@@H]1C2CC[C@@H](C[C@@H]1OC(=O)c1ccccc1)N2C` (single isomer, unassigned) [COCAINE], the pIC50 in the test listed under Rattus norvegicus was 6.68.
